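GI50: concentration for 50% inhibition of growth. TGI denotes the concentration required for complete inhibition of growth.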
Tests used:
Assay in all cases: NCI-60 cell line screen, 384-well format
786-0 renal = tested on: 786-0 renal
A498 renal = tested on: A498 renal
A549 NSCLC = tested on: A549 NSCLC
ACHN renal = tested on: ACHN renal
BT-549 breast = tested on: BT-549 breast
CAKI-1 renal = tested on: CAKI-1 renal
CCRF-CEM leukemia = tested on: CCRF-CEM leukemia
COLO 205 colon = tested on: COLO 205 colon
DU-145 prostate = tested on: DU-145 prostate
EKVX NSCLC = tested on: EKVX NSCLC
HCC-2998 colon = tested on: HCC-2998 colon
HCT-116 colon = tested on: HCT-116 colon
HCT-15 colon = tested on: HCT-15 colon
HL-60(TB) leukemia = tested on: HL-60(TB) leukemia
HOP-62 NSCLC = tested on: HOP-62 NSCLC
HOP-92 NSCLC = tested on: HOP-92 NSCLC
HS 578T breast = tested on: HS 578T breast
HT29 colon = tested on: HT29 colon
IGROV1 ovarian = tested on: IGROV1 ovarian
K-562 leukemia = tested on: K-562 leukemia
KM12 colon = tested on: KM12 colon
LOX IMVI melanoma = tested on: LOX IMVI melanoma
M14 melanoma = tested on: M14 melanoma
MALME-3M melanoma = tested on: MALME-3M melanoma
MCF7 breast = tested on: MCF7 breast
MDA-MB-231 breast = tested on: MDA-MB-231 breast
MDA-MB-435 melanoma = tested on: MDA-MB-435 melanoma
MDA-MB-468 breast = tested on: MDA-MB-468 breast
MOLT-4 leukemia = tested on: MOLT-4 leukemia

COC[C@H](NC(=O)c1cnc(C)s1)C(=O)N[C@@H](COC)C(=O)N[C@@H](Cc1ccccc1)C(=O)[C@@]1(C)CO1 was tested, and the GI50 ([…]-0 renal) was under 10 nM, the TGI (786-0 renal) was 127 nM and the GI50 (A498 renal) was under 10 nM. For the same compound, the TGI (A498 renal) was 10.3 nM, the GI50 (A549 NSCLC) was under 10 nM and the TGI (A549 NSCLC) was 256 nM. It also gave a GI50 (ACHN renal) of under 10 nM, a TGI (ACHN renal) of 156 nM and a GI50 (BT-549 breast) of under 10 nM. The TGI (BT-549 breast) was under 10 nM, the GI50 (CAKI-1 renal) was under 10 nM and the TGI (CAKI-1 renal) was 1790 nM. For the same compound, the GI50 (CCRF-CEM leukemia) was under 10 nM, the TGI (CCRF-CEM leukemia) was under 10 nM and the GI50 (COLO 205 colon) was under 10 nM. It also gave a TGI (COLO 205 colon) of 1530 nM, a GI50 (DU-145 prostate) of under 10 nM and a TGI (DU-145 prostate) of 223 nM. It also gave a GI50 (EKVX NSCLC) of 14.4 nM, a TGI (EKVX NSCLC) of 77.3 nM and a GI50 (HCC-2998 colon) of under 10 nM. The TGI (HCC-2998 colon) was 11.2 nM, the GI50 (HCT-116 colon) was under 10 nM and the TGI (HCT-116 colon) was under 10 nM. The GI50 (HCT-15 colon) was 36.8 nM, the TGI (HCT-15 colon) was 154 nM and the GI50 (HL-60(TB) leukemia) was 10.7 nM. For the same compound, the TGI (HL-60(TB) leukemia) was 23 nM, the GI50 (HOP-62 NSCLC) was under 10 nM and the TGI (HOP-62 NSCLC) was under 10 nM. For the same compound, the GI50 (HOP-92 NSCLC) was under 10 nM, the TGI (HOP-92 NSCLC) was under 10 nM and the GI50 (HS 578T breast) was under 10 nM. It also gave a TGI (HS 578T breast) of under 10 nM, a GI50 (HT29 colon) of under 10 nM and a TGI (HT29 colon) of under 10 nM. The GI50 (IGROV1 ovarian) was 15 nM, the TGI (IGROV1 ovarian) was 51.2 nM and the GI50 (K-562 leukemia) was 11 nM. For the same compound, the TGI (K-562 leukemia) was 35.4 nM, the GI50 (KM12 colon) was under 10 nM and the TGI (KM12 colon) was under 10 nM. The GI50 (LOX IMVI melanoma) was under 10 nM, the TGI (LOX IMVI melanoma) was 12 nM and the GI50 (M14 melanoma) was under 10 nM. The TGI (M14 melanoma) was under 10 nM, the GI50 (MALME-3M melanoma) was under 10 nM and the TGI (MALME-3M melanoma) was under 10 nM. It also gave a GI50 (MCF7 breast) of under 10 nM, a TGI (MCF7 breast) of 325 nM and a GI50 (MDA-MB-231 breast) of under 10 nM. For the same compound, the TGI (MDA-MB-231 breast) was under 10 nM, the GI50 (MDA-MB-435 melanoma) was under 10 nM and the TGI (MDA-MB-435 melanoma) was under 10 nM. It also gave a GI50 (MDA-MB-468 breast) of under 10 nM, a TGI (MDA-MB-468 breast) of under 10 nM and a GI50 (MOLT-4 leukemia) of under 10 nM. For the same compound, the TGI (MOLT-4 leukemia) was under 10 nM.

Source: PubChem BioAssay (NCI)
